# Results taken from ChEMBL document CHEMBL1201862, “PubChem BioAssay data set” (2004).
# The source made the active and inactive calls.
# How the values were obtained:
# [1] = tested on: Vero; test: cells; assay type: functional; settings: Chlorocebus sabaeus
# [2] = tested on: Vero; test: cells; assay type: functional, cell-based; settings: Chlorocebus sabaeus
# [3] = tested on: HEK293; test: cells; assay type: functional, cell-based; settings: Homo sapiens
# [4] = tested on: HEK293; test: cells; assay type: functional, cell-based; settings: Homo sapiens; remark: listed apart in the source
# [5] = biological target: Nucleotide-binding oligomerization domain-containing protein 2 (Homo sapiens, UniProt Q9HC29); test: inhibition of NOD2-driven NF-kB reporter – cell-based, luminescence, uHTS, HEK293 (AID 1566); assay type: functional
# [6] = tested on: HEK293; test: cells; assay type: functional, cell-based; settings: Homo sapiens; remark: listed apart in the source
# [7] = tested on: HEK293; test: inhibition of NOD1-driven NF-kB reporter – cell-based, luminescence, uHTS, primary screen (AID 1578); assay type: functional; settings: Homo sapiens
# [8] = tested on: HEK293; test: NOD2 signaling inhibitors in MDP-stimulated cells, cell-based, uHTS, luminescence (AID 2001); assay type: functional; settings: Homo sapiens
# [9] = biological target: Cytochrome P450 3A4 (Homo sapiens, UniProt P08684);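 further: CYP3A4 tested as one member of a cytochrome P450 panel screen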
# [10] = biological target: T1, Protein skinhead-1 (Caenorhabditis elegans, UniProt P34707); assay type: functional
# T1 sequence (P34707 whole entry): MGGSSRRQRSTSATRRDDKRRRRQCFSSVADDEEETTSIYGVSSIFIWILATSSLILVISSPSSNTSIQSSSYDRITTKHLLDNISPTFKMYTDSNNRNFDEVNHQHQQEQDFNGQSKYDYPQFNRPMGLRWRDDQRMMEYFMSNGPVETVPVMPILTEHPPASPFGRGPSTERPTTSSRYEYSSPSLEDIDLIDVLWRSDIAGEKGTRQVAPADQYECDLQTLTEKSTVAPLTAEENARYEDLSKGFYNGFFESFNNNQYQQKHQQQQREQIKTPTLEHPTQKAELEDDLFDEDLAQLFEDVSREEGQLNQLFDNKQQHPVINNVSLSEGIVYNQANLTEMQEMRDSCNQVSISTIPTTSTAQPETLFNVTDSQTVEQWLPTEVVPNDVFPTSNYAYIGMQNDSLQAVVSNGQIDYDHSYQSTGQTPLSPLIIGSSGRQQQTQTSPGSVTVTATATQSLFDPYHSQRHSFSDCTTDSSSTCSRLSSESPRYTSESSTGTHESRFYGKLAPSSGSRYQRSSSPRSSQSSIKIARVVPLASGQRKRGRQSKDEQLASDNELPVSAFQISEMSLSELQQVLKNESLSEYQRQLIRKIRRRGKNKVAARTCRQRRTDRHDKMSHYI
# [11] = biological target: Cytochrome P450 2C9 (Homo sapiens, UniProt P11712)
# [12] = tested on: H4; test: Luminescence Cell-Based Dose Response HTS to Identify Activators of 5'UTR Stem-Loop Driven Prion Protein mRNA Translation in H4 Neuroglioblastoma Cells. [Related pubchem assays: 1829 (Project Summary), 1814 (Primary HTS)]; assay type: functional; settings: Homo sapiens
# [13] = luciferase reporter signal suppression in cells – H4 neuroglioma cells, luminescence, dose response (AID 1990); assay type: functional, cell-based
# [14] = HEK-293T viability loss after treatment – luminescence, T-cell screen hits, cytotoxicity control for TCR NF-kB inhibitor project, dose response (AID 489026); assay type: functional, cell-based;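 further: cells exposed to compound about 14 hours before the viability readout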
# [15] = Luminescence Cell-Based Dose Response HTS to Identify Inhibitors of 5'UTR Stem-Loop Driven Prion Protein mRNA Translation in H4 Neuroglioblastoma Cells. [Related pubchem assays: 1827 (Project Summary), 1813 (Primary HTS)]; assay type: functional
# [16] = alpha-synuclein stem-loop luciferase translation blockers – H4 neuroglioma cells, luminescence, confirmation (AID 1988); assay type: functional, cell-based
# [17] = tested on: INS1; test: INS-1E survival protection against cytokine death – cell-based, luminescence, retest, dose response (AID 449756); assay type: functional; settings: Rattus norvegicus;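 further: cell death triggered by IL-1 beta plus TNF-alpha plus IFN-gamma mixture; protective hits raise ATP signal compared with cytokine alone wells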
# [18] = biological target: T2, Heat shock factor protein 1 (Mus musculus, UniProt P38532); test: enhancement of HSF1-driven luciferase signal – cell-based, NIH3T3, luminescence, dose retest, confirmation (AID 435004); assay type: functional;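 further: stress induced by proteasome inhibitor MG132 added 30 min after compound; luciferase reporter driven by HSF1 response element in NIH3T3 cells; actives raise luminescence as potentiators of the MG132 stress response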
# T2 sequence (P38532 whole entry): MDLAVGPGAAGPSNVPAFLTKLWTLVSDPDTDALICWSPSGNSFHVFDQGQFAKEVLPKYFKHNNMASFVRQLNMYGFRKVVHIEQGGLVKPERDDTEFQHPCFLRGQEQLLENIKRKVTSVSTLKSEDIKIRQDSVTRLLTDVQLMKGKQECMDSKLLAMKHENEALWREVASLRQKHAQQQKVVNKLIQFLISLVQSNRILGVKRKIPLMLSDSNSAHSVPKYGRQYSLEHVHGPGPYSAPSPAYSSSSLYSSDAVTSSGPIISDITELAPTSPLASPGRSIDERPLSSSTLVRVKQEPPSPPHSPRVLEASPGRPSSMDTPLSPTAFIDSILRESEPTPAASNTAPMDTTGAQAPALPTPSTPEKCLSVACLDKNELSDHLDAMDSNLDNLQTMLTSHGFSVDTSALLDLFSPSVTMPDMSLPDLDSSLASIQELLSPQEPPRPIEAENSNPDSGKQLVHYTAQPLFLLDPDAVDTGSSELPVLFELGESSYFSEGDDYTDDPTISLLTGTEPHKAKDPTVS
# [19] = biological target: Paired box protein Pax-8 (Homo sapiens, UniProt Q06710); test: PAX8 transcriptional activity inhibition in RMG-I – RMG-I cells, luciferase, cherry-pick, dose response (AID 687027); assay type: functional, cell-based;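 further: luciferase reporter driven by Pax8 target thyroperoxidase promoter measured by SteadyGlo luminescence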
# [20] = biological target: T3, Voltage-gated N-type calcium channel alpha-1B subunit/Amyloid beta A4 precursor protein-binding family A member 1 (Homo sapiens, UniProt Q00975+Q02410); assay type: protein assay
# [21] = general cell-killing toxicity readout – plate reader, dry powder samples, cytotoxicity control for PAX8 inhibitor project, dose response (AID 743021); assay type: functional, cell-based
# [22] = biological target: T3, Voltage-gated N-type calcium channel alpha-1B subunit/Amyloid beta A4 precursor protein-binding family A member 1; assay type: protein assay; remark: listed apart in the source
# [23] = biological target: T4, Rac GTPase-activating protein 1 (Homo sapiens, UniProt Q9H0H5); test: blockers of MgcRacGAP-driven Rac1 GTP hydrolysis – biochemical, ADP Hunter fluorescence, primary and confirmatory, confirmation (AID 624330); assay type: functional
# T4 sequence (Q9H0H5 whole entry): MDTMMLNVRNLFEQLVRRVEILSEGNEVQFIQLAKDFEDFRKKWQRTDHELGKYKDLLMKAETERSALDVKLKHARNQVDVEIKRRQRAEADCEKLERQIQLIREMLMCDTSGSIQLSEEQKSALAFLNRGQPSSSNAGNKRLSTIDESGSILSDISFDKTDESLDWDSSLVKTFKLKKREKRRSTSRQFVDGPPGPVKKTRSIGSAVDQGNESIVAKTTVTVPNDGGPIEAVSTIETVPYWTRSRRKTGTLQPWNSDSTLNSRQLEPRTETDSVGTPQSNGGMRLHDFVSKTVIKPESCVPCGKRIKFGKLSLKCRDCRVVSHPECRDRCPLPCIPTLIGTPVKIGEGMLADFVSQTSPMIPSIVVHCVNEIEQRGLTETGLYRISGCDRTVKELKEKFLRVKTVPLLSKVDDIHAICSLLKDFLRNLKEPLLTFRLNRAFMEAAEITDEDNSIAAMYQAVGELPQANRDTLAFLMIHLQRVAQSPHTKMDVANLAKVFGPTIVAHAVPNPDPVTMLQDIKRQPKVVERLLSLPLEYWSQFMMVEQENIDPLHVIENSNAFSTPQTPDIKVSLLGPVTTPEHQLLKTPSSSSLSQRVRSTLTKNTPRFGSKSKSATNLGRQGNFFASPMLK
# [24] = biological target: Genome polyprotein (dengue virus type 2, UniProt P29990); test: flavivirus cap methylation enzyme inhibition – biochemical, confirmation dose response, primary screen (AID 588689); assay type: functional
# Chain of Genome polyprotein (P29990 2492-3391 limits assumed): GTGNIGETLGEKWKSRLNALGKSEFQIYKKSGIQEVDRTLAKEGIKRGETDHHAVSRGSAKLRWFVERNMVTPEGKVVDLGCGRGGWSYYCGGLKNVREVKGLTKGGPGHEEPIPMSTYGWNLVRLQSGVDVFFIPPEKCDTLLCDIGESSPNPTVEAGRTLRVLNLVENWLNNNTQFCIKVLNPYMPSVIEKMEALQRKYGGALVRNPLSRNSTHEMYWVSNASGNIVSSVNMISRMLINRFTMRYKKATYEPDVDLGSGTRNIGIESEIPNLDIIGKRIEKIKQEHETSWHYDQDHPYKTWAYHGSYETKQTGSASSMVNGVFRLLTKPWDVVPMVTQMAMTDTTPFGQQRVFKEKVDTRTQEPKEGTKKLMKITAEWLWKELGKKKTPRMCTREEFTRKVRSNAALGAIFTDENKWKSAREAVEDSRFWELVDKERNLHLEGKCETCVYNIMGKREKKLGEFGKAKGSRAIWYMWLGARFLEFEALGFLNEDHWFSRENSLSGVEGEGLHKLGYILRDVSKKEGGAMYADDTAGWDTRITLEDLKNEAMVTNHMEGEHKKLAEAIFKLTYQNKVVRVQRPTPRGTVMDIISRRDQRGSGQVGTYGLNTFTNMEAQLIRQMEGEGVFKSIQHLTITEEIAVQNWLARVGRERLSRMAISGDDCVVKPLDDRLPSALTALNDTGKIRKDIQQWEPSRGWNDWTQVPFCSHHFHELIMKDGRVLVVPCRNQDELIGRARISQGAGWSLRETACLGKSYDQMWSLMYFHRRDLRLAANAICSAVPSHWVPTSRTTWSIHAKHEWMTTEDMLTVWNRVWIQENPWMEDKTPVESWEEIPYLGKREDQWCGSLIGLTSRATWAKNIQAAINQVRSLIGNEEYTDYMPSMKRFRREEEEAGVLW
# T3 sequence (Q00975 whole entry): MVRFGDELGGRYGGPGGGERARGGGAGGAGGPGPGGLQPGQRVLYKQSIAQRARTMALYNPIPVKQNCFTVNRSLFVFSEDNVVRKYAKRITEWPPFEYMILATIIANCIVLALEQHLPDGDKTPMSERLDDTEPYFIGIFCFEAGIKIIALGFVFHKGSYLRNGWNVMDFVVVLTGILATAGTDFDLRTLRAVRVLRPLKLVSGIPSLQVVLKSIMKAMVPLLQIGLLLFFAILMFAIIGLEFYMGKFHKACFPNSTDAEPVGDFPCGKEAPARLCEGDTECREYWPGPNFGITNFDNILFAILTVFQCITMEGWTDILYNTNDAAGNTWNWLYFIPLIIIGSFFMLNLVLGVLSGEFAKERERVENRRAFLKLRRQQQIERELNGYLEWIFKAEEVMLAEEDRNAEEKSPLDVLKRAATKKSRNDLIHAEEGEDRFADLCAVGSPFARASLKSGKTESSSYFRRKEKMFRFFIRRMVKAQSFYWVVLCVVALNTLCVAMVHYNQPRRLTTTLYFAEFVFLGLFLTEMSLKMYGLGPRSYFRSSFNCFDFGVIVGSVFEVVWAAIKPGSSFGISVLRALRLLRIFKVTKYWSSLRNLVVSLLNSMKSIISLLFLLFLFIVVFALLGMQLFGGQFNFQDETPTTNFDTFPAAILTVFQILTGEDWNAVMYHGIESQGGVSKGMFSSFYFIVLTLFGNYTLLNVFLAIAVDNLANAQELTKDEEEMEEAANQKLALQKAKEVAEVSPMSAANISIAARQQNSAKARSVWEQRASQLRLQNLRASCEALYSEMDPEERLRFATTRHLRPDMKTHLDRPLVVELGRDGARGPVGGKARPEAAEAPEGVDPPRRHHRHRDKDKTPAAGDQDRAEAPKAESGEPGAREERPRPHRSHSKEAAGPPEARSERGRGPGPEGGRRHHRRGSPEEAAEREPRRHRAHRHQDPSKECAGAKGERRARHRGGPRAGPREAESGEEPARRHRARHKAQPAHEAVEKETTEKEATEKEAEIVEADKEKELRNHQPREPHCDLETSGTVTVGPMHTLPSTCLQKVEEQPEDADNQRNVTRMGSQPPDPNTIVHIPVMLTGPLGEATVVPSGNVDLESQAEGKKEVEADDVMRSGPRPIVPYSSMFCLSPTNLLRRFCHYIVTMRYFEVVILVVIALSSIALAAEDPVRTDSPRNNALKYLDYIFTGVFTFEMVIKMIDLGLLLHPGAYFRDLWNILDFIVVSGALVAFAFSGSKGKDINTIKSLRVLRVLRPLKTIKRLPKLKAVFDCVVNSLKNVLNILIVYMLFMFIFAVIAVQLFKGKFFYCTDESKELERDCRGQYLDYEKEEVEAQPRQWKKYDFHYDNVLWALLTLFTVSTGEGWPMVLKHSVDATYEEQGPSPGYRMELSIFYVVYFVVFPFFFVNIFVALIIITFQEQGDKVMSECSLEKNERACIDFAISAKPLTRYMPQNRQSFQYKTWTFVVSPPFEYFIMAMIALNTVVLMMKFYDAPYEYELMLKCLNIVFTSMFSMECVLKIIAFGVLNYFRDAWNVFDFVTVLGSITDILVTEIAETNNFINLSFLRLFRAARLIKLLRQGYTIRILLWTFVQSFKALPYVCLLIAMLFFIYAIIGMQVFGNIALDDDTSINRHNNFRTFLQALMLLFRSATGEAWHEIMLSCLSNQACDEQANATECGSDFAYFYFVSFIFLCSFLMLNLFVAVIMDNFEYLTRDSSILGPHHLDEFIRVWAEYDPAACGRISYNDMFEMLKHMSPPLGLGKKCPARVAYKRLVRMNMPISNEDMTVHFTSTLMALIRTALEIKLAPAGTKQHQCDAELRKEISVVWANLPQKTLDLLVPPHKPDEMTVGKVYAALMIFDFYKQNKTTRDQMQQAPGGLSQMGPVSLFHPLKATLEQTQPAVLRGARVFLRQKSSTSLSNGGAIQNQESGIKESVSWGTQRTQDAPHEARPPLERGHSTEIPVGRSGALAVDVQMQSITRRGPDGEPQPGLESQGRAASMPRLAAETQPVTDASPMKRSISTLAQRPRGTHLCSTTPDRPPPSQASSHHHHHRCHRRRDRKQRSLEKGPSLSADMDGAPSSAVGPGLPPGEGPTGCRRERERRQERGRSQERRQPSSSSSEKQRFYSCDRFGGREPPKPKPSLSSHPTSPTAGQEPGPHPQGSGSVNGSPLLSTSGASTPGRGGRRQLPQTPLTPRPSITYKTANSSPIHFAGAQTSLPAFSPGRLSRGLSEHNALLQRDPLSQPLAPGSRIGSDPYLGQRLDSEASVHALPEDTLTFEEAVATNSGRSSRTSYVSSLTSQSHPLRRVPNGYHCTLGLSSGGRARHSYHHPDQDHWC
# T3 sequence (Q02410 whole entry): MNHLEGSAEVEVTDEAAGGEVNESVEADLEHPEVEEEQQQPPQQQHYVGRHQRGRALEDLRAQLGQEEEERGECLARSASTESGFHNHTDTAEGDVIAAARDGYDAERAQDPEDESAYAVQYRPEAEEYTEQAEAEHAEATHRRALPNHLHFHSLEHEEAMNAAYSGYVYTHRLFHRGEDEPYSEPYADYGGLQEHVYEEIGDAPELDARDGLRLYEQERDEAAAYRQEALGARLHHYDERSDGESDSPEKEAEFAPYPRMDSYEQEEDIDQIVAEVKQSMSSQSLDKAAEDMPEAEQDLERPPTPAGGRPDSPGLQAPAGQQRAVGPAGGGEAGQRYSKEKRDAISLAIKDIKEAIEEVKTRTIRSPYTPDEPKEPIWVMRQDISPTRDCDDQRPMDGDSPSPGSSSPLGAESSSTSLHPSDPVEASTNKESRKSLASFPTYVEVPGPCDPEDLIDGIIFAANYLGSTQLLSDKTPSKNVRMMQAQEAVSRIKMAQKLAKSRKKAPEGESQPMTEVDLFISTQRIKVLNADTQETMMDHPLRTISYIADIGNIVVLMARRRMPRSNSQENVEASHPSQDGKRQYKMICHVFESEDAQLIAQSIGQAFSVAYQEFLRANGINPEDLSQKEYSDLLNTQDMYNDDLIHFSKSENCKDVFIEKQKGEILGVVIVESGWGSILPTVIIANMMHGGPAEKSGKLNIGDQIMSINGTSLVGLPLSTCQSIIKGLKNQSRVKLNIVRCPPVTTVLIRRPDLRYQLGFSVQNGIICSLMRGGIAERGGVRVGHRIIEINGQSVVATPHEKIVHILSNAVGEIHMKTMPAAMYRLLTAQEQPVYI
# Chain of Cytochrome P450 3A4 (P08684 whole entry): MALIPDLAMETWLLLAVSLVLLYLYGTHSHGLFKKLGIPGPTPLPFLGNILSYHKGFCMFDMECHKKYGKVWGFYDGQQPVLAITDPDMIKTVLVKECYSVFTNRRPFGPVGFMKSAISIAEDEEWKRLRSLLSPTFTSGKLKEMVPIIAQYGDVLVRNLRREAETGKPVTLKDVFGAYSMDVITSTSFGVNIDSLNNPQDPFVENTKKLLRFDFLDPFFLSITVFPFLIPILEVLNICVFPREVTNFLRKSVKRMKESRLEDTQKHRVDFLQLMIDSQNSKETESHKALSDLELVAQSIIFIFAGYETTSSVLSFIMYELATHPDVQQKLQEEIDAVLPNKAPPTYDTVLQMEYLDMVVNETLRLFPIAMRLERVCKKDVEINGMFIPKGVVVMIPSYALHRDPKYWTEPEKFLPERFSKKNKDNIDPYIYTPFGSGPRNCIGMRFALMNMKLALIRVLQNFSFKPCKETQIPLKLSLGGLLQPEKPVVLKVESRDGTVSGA
# Chain of Cytochrome P450 2C9 (P11712 whole entry): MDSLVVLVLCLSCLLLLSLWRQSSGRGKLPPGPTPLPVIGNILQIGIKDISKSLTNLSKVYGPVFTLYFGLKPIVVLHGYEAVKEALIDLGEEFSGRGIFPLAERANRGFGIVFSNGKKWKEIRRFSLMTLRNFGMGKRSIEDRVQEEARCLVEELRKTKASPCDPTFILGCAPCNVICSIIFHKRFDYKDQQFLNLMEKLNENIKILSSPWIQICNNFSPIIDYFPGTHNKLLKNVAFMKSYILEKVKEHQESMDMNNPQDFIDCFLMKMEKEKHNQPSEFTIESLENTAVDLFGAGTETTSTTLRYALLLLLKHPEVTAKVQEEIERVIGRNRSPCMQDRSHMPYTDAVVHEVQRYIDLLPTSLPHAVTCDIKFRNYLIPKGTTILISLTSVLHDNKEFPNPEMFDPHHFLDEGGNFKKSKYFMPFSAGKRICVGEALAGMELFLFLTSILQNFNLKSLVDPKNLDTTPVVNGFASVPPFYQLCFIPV
structure (smiles),measurement,setting,value
Cc1ccc(/C=C/C(=O)c2c(C)nc3ccccn23)cc1,CC50,[1],17.6 µM (active)
same,IC50,[2],> 25 µM (active)
COc1ccc(C)cc1NC(=O)c1sc2ncnc(N3CCN(c4ccccn4)CC3)c2c1C,IC50,[3],> 20 µM (inactive)
same,IC50,[4],> 20 µM (inactive)
same,EC50,[5],> 20 µM (inactive)
same,IC50,[6],> 20 µM (inactive)
same,EC50,[7],> 20 µM (inactive)
same,IC50,[8],> 20 µM (inactive)
Cc1ccccc1C(=O)Nc1ccc2c(c1)CCCN2C(=O)c1cccs1,CC50,[1],> 25 µM (active)
same,IC50,[2],7.77 µM (active)
O=[N+]([O-])c1ccc2nc(-c3ccc(Cl)cc3)n(OCc3ccccc3)c2c1,AC50,[9],inconclusive
same,IC50,[10],> 100 µM (inactive)
same,AC50,[11],22.4 µM (inconclusive)
same,EC50,[12],0.973 µM (active)
Cc1ccc2nc(C)c(CN3CCN(c4ccc([N+](=O)[O-])cc4Cl)CC3)n2c1,EC50,[13],> 120 µM (not active)
same,IC50,[14],> 80 µM (inactive)
same,EC50,[15],17.1 µM (active)
same,EC50,[16],> 120 µM (not active)
same,AC50,[17],1.79 µM (active)
COC(=O)N1CCC2(CC1)CCN(c1cccc(-c3ccccc3)c1)CC2,AC50,[9],inconclusive
COc1ccc(N2C(=O)CC(Sc3nnnn3-c3ccc(F)cc3)C2=O)cc1 (centres undefined),EC50,[18],17.1 µM (active)
same,AC50,[19],13.6 µM (active)
same,IC50,[20],11 µM (active)
same,AC50,[21],26.6 µM (active)
same,IC50,[22],3.95 µM (active)
NNc1cc([N+](=O)[O-])cc2c1c(=O)n(Cc1ccccc1)[s+]2[O-] (centres undefined),IC50,[20],10.3 µM (active)
same,IC50,[23],52.3 µM (active)
same,IC50,[22],> 50 µM (inactive)
same,IC50,[24],63.4 µM (active)
